Patent publication US20250236608A1, “EGFR INHIBITORS” (Blueprint Medicines Corporation, priority 2022, published 2025)

What was measured:
[1] = target: pEGFR (Tyr1068) in PC-9 cells (Ex19Del) (Homo sapiens (Human), UniProt P00533, DEL746-750); assay: PC-9 pEGFR AlphaLISA assay; format: cell-based; settings: 4 hours incubation, p-EGFR (Tyr1068) AlphaLISA, read-out: Ext pEGFR_PC-9 Ex19Del IC50
Procedure, shortened: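 Readout: AlphaLISA SureFire Ultra signal in cell lysates, with acceptor beads for 1.5-2 h and donor beads overnight at room temperature in the dark. Beforehand, unstimulated cells in 10% FBS medium received compounds (10 points, 4-fold steps) for 4 h at 37° C. IC50 came from percent inhibition curves.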

EGFR (d746-750) = EGFR (d746-750) (Homo sapiens (Human), UniProt P00533, DEL746-750); assay: Biochemical EGFR inhibition assay, EGFR (d746-750); settings: Caliper mobility shift; 1.0 mM ATP or ATP Km; read-out: Enz EGFR_Exon19-del746-750 IC50
Chain of EGFR (d746-750) (P00533 other isoform, or with tags, fused parts or gaps del 1-694/del 746-750 limits assumed): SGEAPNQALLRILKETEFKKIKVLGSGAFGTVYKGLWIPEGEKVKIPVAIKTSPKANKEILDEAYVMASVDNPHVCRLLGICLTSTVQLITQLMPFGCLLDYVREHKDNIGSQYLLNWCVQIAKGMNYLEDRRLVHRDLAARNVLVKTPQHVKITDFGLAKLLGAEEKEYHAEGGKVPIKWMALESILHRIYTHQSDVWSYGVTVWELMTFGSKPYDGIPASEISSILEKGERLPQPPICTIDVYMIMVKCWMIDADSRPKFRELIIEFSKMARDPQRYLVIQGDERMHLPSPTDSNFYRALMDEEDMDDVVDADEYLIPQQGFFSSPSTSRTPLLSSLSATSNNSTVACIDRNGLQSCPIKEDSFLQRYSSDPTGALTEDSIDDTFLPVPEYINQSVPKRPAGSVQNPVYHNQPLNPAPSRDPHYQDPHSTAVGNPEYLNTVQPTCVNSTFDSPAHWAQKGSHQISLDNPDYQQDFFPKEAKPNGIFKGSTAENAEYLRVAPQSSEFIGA

EGFR L858R = EGFR L858R (Homo sapiens (Human), UniProt P00533, L858R); assay: Biochemical EGFR inhibition assay, EGFR L858R; settings: Caliper mobility shift; 1.0 mM ATP or ATP Km; read-out: Enz EGFR_L858R IC50
Chain of EGFR L858R (P00533 25-1210 L858R): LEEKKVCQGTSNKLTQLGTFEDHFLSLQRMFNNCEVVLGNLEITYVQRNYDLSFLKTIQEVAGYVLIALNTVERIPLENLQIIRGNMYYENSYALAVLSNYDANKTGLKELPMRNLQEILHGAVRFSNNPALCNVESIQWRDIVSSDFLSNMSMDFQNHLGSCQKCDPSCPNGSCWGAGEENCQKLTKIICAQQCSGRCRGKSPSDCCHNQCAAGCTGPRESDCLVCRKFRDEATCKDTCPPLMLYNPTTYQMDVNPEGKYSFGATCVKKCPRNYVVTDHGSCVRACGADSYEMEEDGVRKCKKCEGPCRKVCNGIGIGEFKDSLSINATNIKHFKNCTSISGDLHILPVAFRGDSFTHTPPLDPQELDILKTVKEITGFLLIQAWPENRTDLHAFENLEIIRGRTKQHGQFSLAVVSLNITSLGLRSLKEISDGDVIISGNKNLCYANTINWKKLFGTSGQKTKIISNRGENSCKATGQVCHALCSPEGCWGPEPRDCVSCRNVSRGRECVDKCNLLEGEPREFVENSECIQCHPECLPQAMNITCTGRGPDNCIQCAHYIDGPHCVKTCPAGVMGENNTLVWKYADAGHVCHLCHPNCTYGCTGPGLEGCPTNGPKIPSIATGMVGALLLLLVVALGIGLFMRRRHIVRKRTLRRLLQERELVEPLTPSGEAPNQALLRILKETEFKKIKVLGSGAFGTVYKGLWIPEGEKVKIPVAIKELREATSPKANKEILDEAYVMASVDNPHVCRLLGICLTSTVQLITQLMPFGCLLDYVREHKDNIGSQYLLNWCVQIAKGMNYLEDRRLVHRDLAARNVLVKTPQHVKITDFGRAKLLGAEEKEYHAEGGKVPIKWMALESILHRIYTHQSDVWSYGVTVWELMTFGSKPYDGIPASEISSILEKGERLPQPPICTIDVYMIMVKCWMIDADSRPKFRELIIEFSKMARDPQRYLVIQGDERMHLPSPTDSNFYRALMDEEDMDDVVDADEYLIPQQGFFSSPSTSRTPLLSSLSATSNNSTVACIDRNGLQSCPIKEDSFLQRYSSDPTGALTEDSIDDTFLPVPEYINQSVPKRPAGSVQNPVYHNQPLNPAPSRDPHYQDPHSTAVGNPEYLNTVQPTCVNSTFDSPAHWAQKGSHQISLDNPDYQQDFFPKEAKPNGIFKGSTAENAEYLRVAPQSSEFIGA

Chain of pEGFR (Tyr1068) in PC-9 cells (Ex19Del) (P00533 other isoform, or with tags, fused parts or gaps del 746-750): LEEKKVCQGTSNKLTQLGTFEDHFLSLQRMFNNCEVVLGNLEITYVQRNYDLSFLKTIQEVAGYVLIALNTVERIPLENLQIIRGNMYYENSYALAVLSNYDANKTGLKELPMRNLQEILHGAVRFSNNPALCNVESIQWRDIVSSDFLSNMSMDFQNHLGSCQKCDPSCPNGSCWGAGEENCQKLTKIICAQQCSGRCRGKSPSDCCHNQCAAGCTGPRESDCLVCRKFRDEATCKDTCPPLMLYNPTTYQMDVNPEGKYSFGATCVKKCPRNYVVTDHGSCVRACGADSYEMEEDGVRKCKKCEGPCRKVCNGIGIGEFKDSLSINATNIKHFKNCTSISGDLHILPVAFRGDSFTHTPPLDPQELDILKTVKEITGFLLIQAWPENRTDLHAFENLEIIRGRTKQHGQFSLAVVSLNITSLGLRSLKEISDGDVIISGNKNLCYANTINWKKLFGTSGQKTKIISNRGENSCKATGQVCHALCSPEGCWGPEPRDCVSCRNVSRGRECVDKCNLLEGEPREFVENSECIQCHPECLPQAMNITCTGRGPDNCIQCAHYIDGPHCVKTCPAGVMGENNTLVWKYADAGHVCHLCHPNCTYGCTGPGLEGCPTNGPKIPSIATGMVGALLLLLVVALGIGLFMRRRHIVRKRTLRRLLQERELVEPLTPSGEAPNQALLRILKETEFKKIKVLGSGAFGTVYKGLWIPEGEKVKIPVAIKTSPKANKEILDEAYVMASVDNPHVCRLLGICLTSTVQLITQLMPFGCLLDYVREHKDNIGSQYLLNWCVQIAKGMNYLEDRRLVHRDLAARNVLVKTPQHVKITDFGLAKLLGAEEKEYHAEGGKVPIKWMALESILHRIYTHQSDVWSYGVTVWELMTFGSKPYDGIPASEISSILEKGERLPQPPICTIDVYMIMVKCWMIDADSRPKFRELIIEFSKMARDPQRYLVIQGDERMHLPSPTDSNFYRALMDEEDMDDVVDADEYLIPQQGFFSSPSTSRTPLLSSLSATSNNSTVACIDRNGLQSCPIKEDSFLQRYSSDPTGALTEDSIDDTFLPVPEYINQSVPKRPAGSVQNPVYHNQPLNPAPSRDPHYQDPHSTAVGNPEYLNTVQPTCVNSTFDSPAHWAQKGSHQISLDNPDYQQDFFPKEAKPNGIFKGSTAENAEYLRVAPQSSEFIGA

SMILES | IC50 [1] | IC50 (EGFR (d746-750)) | IC50 (EGFR L858R)
CCOc1cc2ncnc(-c3cn(C)nc3-c3ccccc3)c2cc1OC1CCN(C)CC1 [Example 9, 7-ethoxy-4-(1-methyl-3-phenyl-1H-pyrazol-4-yl)-6-((1-methylpiperidin-4-yl)oxy)quinazoline] | 9.8 nM | 6.4 nM | 13.1 nM
COc1cc2ncnc(-c3cn(C)nc3-c3ccccc3)c2nc1NC(=O)C1(F)CCN(C)C1 (stereo not drawn) [Example 433, 3-fluoro-N-(7-methoxy-4-(1-methyl-3-phenyl-1H-pyrazol-4-yl)pyrido[3,2-d]pyrimidin-6-yl)-1-methylpyrrolidine-3-carboxamide] | 10.5 nM | 1.6 nM | 24.9 nM
CCOc1cc2ncnc(-c3cn(CC(F)F)nc3-c3ccccc3)c2cc1CO [Example 123, (4-(1-(2,2-difluoroethyl)-3-phenyl-1H-pyrazol-4-yl)-7-ethoxyquinazolin-6-yl)methanol] | 3 nM | 1 nM | 1.6 nM
COc1cc2ncnc(-c3cn(C)nc3-c3ccccc3)c2cc1NC(=O)[C@H]1CCN1C (single isomer, unassigned) [Example 253, (R)—N-(7-methoxy-4-(1-methyl-3-phenyl-1H-pyrazol-4-yl)quinazolin-6-yl)-1-methylazetidine-2-carboxamide or (S)—N-(7-methoxy-4-(1-methyl-3-phenyl-1H-pyrazol-4-yl)quinazolin-6-yl)-1-methylazetidine-2-carboxamide] | 3.9 nM | 1.9 nM | 2.4 nM
CCOc1cc2ncnc(-c3cn(C)nc3-c3ccccc3)c2cc1N1CCN(C)CC1 [Example 162, 7-ethoxy-4-(1-methyl-3-phenyl-1H-pyrazol-4-yl)-6-(4-methylpiperazin-1-yl)quinazoline] | 6 nM | 2.6 nM | 7 nM
COc1cc2ncnc(-c3cn(C)nc3-c3ccccc3)c2cc1OC(=O)N1C[C@H](C)N(C)C[C@@H]1C [Example 97, 7-methoxy-4-(1-methyl-3-phenyl-1H-pyrazol-4-yl)quinazolin-6-yl (2S,5S)-2,4,5-trimethylpiperazine-1-carboxylate] | 12.4 nM | 4.9 nM | 7.8 nM
COc1cc2ncnc(-c3cn(C)nc3-c3ccccc3)c2cc1-c1cnc(C(C)(C)O)s1 [Example 149, 2-(5-(7-methoxy-4-(1-methyl-3-phenyl-1H-pyrazol-4-yl)quinazolin-6-yl)thiazol-2-yl) propan-2-ol] | 12.8 nM | 2.1 nM | 4.9 nM
COc1cc2ncnc(-c3cn(C)nc3-c3ccccc3)c2nc1O[C@H](C)c1nnc(C)s1 (single isomer, unassigned) [Example 52, (R)-2-(1-((7-methoxy-4-(1-methyl-3-phenyl-1H-pyrazol-4-yl)pyrido[3,2-d]pyrimidin-6-yl)oxy)ethyl)-5-methyl-1,3,4-thiadiazole or (S)-2-(1-((7-methoxy-4-(1-methyl-3-phenyl-1H-pyrazol-4-yl)pyrido[3,2-d]pyrimidin-6-yl)oxy)ethyl)-5-methyl-1,3,4-thiadiazole] | 6.3 nM | 2.7 nM | 12.3 nM
COc1cc2ncnc(-c3cn(C)nc3-c3ccccc3)c2nc1NC(=O)[C@]1(C(F)(F)F)CCN(C)C1 (single isomer, unassigned) [Example 395, (S)—N-(7-methoxy-4-(1-methyl-3-phenyl-1H-pyrazol-4-yl)pyrido[3,2-d]pyrimidin-6-yl)-1-methyl-3-(trifluoromethyl) pyrrolidine-3-carboxamide or (R)—N-(7-methoxy-4-(1-methyl-3-phenyl-1H-pyrazol-4-yl)pyrido[3,2-d]pyrimidin-6-yl)-1-methyl-3-(trifluoromethyl) pyrrolidine-3-carboxamide] | 5.3 nM | 1.2 nM | 3.1 nM

Now those with a lower IC50 [1], led by results:

IC50 [1] | IC50 (EGFR (d746-750)) | IC50 (EGFR L858R) | SMILES
2.7 nM | 1.1 nM | 12.8 nM | COc1cc2ncnc(-c3cn(C)nc3-c3ccccc3)c2nc1O[C@H](C)c1ncsc1C (single isomer, unassigned) [Example 53, (R)-4-(1-((7-methoxy-4-(1-methyl-3-phenyl-1H-pyrazol-4-yl)pyrido[3,2-d]pyrimidin-6-yl)oxy)ethyl)-5-methylthiazole or (S)-4-(1-((7-methoxy-4-(1-methyl-3-phenyl-1H-pyrazol-4-yl)pyrido[3,2-d]pyrimidin-6-yl)oxy)ethyl)-5-methylthiazole]
2.5 nM | 1.7 nM | 2.9 nM | COc1cc2ncnc(-c3cn(C)nc3-c3ccccc3)c2cc1-c1cnn(CCN(C)C)c1 [Example 233, 2-(4-(7-methoxy-4-(1-methyl-3-phenyl-1H-pyrazol-4-yl)quinazolin-6-yl)-1H-pyrazol-1-yl)-N,N-dimethylethan-1-amine]
1.6 nM | 1.3 nM | 2.3 nM | COc1cc2ncnc(-c3cn(CC(F)F)nc3-c3ccccc3)c2cc1NC(=O)c1cccnc1 [Example 353, N-(4-(1-(2,2-difluoroethyl)-3-phenyl-1H-pyrazol-4-yl)-7-methoxyquinazolin-6-yl)nicotinamide]
1.3 nM | 1.4 nM | 2.6 nM | CCn1cc(-c2ncnc3cc(OC)c(NC(=O)[C@@]45C[C@@H]4CN(C)C5)nc23)c(-c2ccc(F)cc2)n1 (single isomer, unassigned) [Example 398, (1S,5S)—N-(4-(1-ethyl-3-(4-fluorophenyl)-1H-pyrazol-4-yl)-7-methoxypyrido[3,2-d]pyrimidin-6-yl)-3-methyl-3-azabicyclo[3.1.0]hexane-1-carboxamide or (1R,5R)—N-(4-(1-ethyl-3-(4-fluorophenyl)-1H-pyrazol-4-yl)-7-methoxypyrido[3,2-d]pyrimidin-6-yl)-3-methyl-3-azabicyclo[3.1.0]hexane-1-carboxamide]
1.2 nM | 1 nM | 1.6 nM | CCOc1cc2ncnc(-c3cn(C)nc3-c3ccccc3)c2nc1N1CC2(COC2)C1 [Example 175, 6-(7-ethoxy-4-(1-methyl-3-phenyl-1H-pyrazol-4-yl)pyrido[3,2-d]pyrimidin-6-yl)-2-oxa-6-azaspiro[3.3]heptane]
0.9 nM | 0.7 nM | 1.3 nM | COc1cc2ncnc(-c3cn(C)nc3-c3ccccc3)c2nc1NC(=O)C1(C(F)F)CC1 [Example 369, 1-(difluoromethyl)-N-(7-methoxy-4-(1-methyl-3-phenyl-1H-pyrazol-4-yl)pyrido[3,2-d]pyrimidin-6-yl)cyclopropane-1-carboxamide]
0.5 nM | 0.9 nM | 1.6 nM | COc1cc2ncnc(-c3cn(C4CC4)nc3-c3ccccc3)c2nc1NC(=O)C1(C(F)(F)F)CC1 [Example 367, N-(4-(1-cyclopropyl-3-phenyl-1H-pyrazol-4-yl)-7-methoxypyrido[3,2-d]pyrimidin-6-yl)-1-(trifluoromethyl)cyclopropane-1-carboxamide]
0.4 nM | 0.7 nM | 1.1 nM | CCn1cc(-c2ncnc3cc(OC)c(NC(=O)c4cnn(CCN(C)C)c4)nc23)c(-c2ccccc2)n1 [Example 319, 1-(2-(dimethylamino)ethyl)-N-(4-(1-ethyl-3-phenyl-1H-pyrazol-4-yl)-7-methoxypyrido[3,2-d]pyrimidin-6-yl)-1H-pyrazole-4-carboxamide]
